Test results published in publication PMC13107563 (Protein & Cell, 2025).
No end group written: not given here.

How the values were obtained:
NPFFR1 / NPFFR2 = conditions: NPFFR1 vs NPFFR2; ref Quillet et al., 2016; cited from earlier work
Text: NPFFR1 primarily couples to inhibitory Gi/o proteins and regulates di ...

NPFFR2 T220A = target: T1, NPFFR2 T220A (Homo sapiens, UniProt Q9Y5X5, T322A); assay: GloSensor cAMP accumulation assay, NPFFR2 T220A; format: cell-based; conditions: Gi signaling, three independent experiments in triplicates
T1 construct: expressed in transfected cells; host or cells: HEK293T (described for NPFFR1 only)

NPFFR2 (WT) = target: T2, NPFFR2 (WT) (Homo sapiens, UniProt Q9Y5X5); assay: GloSensor cAMP accumulation assay, WT NPFFR2 (Gi signaling); format: cell-based; conditions: WT NPFFR2 (reference, 100 %WT), three independent experiments in triplicates
T2 construct: expressed in transfected cells; host or cells: HEK293T (described for NPFFR1 only)
T2 sequence (Q9Y5X5 103-522): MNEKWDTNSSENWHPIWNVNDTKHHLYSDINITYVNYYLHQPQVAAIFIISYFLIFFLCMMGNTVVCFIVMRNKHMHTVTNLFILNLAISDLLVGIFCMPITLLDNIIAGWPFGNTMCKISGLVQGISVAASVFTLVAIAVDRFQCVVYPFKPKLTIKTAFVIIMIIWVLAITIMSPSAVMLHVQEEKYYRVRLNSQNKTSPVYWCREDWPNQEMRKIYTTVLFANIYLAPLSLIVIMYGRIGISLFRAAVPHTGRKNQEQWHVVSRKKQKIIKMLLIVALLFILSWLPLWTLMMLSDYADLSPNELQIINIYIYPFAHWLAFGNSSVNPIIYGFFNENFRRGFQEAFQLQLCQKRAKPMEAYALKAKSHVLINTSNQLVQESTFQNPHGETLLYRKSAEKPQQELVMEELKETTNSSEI

T1 sequence (Q9Y5X5 103-522 T322A): as the sequence (Q9Y5X5 103-522) above, with T220A counted along it

| Compound | receptor preference (NPFFR1 / NPFFR2) | EC50 (NPFFR2 T220A) | Emax (NPFFR2 (WT)) |
| --- | --- | --- | --- |
| Neuropeptide AF (AGEGLNSQFWSLAAPQRF; ends and bridges not checked; UniProt O15130 93-110, looked up) [NPAF, peptide derived from pro-NPFFA] | prefer binding to NPFFR2 |  |  |
| CC(C)C[C@H](NC(=O)[C@H](CC(N)=O)NC(=O)[C@@H]1CCCN1C(=O)[C@@H](N)C(C)C)C(=O)N1CCC[C@H]1C(=O)N[C@@H](CCC(N)=O)C(=O)N[C@@H](CCCNC(=N)N)C(=O)N[C@@H](Cc1ccccc1)C(N)=O [RFRP-3, RF-amide related peptide-3] |  | > 30.2 µM | 100% |
